In article PMC10004634 (PLOS ONE, 2023):
Read-outs that look alike come from different tables or passages of the source.

Assays:
BLK = BLK (Homo sapiens, UniProt P51451); assay: Z'-Lyte kinase inhibition assay; format: biochemical; set-up: purchased Thermo Fisher Scientific (Invitrogen Z'-Lyte service); conditions: 60 min preincubation
Description: In all the assays, each test compound was preincubated with peptide/kinase mixture or kinase/antibody mixture for 60 min at room temperature before adding the ATP solution or AlexaFluor labeled Tracer to initiate the 60-min incubation of the reactants.

PIK4CB = target: T1, PIK4CB (Homo sapiens, UniProt Q9UBF8); assay: biochemical; set-up: KINOMEscan scanMAX competition binding, DNA-tagged kinases, qPCR read-out, percent control at 300 nM
T1 construct: gene PI4KB

KIT(V559D,T670I) = KIT(V559D,T670I) (Homo sapiens, UniProt P10721, T670I/V559D); assay: biochemical; set-up: KINOMEscan scanMAX competition binding, DNA-tagged kinases, qPCR read-out, percent control at 300 nM
KIT(V559D,T670I), sequence (P10721 whole entry V559D/T670I): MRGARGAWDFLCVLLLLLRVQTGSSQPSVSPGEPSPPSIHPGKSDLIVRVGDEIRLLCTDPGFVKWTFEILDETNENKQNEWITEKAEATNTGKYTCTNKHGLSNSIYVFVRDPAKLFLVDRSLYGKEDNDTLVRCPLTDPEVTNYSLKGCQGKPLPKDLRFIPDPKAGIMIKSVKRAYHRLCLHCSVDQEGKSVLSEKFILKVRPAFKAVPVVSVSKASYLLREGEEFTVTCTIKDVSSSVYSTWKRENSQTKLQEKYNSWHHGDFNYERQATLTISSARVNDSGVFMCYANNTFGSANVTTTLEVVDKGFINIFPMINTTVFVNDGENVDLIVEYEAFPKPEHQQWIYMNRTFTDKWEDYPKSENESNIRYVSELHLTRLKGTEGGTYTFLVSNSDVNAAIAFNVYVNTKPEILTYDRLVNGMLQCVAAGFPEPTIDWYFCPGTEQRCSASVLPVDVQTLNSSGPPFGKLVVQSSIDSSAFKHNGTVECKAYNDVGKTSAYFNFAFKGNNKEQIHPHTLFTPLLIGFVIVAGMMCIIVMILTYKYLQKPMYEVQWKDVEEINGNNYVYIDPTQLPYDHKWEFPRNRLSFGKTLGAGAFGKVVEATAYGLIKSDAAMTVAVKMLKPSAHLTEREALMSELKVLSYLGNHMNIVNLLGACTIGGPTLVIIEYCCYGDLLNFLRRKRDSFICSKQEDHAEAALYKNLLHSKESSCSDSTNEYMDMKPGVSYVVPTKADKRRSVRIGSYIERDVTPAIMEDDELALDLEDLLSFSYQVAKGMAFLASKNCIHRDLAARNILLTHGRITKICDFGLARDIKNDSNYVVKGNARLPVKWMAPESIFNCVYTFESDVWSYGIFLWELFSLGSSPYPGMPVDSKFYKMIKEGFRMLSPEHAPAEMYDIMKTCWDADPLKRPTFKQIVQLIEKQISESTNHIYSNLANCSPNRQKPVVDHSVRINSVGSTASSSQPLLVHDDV

ERN1 = ERN1 (Homo sapiens, UniProt O75460); assay: biochemical; set-up: KINOMEscan scanMAX competition binding, DNA-tagged kinases, qPCR read-out, percent control at 300 nM
MEK5 = target: T2, MEK5 (Homo sapiens, UniProt Q13163); assay: biochemical; set-up: KINOMEscan scanMAX competition binding, DNA-tagged kinases, qPCR read-out, percent control at 300 nM
T2 construct: gene MAP2K5
T2 sequence (Q13163 1-448): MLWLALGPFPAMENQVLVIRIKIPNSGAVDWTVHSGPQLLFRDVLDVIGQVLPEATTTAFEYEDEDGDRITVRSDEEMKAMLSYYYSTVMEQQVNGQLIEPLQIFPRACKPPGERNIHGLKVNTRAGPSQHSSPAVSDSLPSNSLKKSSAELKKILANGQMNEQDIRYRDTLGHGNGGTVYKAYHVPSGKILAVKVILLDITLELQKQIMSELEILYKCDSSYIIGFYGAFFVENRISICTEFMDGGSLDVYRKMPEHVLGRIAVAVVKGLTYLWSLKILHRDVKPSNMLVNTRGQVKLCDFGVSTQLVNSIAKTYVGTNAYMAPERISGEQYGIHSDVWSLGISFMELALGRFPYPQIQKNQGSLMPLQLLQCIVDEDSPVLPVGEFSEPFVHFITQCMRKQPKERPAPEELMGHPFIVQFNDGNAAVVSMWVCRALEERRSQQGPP

[1] = target: T3, JAK2(JH1domain-catalytic) (Homo sapiens, UniProt O60674); assay: biochemical; set-up: KINOMEscan scanMAX competition binding, DNA-tagged kinases, qPCR read-out, percent control at 300 nM
T3 construct: JH1domain-catalytic

FGFR2 = FGFR2 (Homo sapiens, UniProt P21802); assay: biochemical; set-up: KINOMEscan scanMAX competition binding, DNA-tagged kinases, qPCR read-out, percent control at 300 nM
FGFR2, sequence (P21802 whole entry): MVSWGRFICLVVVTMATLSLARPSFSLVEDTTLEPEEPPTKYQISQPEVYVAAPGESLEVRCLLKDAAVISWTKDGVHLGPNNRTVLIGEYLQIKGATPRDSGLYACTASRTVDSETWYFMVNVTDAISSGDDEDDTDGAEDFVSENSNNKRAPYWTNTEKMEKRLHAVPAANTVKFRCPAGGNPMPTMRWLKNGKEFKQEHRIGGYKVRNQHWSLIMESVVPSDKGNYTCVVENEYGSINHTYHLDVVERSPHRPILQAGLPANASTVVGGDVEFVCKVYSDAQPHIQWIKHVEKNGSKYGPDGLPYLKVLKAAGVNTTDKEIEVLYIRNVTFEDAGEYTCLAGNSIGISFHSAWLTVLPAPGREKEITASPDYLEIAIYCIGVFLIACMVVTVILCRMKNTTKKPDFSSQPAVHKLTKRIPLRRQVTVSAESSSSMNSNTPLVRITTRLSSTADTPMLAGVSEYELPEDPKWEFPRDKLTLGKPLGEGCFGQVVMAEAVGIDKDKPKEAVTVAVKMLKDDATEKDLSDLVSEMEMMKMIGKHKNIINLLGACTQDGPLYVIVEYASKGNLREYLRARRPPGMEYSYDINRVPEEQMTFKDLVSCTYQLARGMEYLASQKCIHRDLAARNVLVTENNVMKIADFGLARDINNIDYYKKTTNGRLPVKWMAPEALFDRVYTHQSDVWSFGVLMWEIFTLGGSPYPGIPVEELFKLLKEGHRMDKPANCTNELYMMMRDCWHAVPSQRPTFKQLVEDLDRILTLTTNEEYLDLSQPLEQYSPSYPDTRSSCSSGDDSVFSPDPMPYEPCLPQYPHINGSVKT

[2] = target: EGFR(L747-E749del, A750P) (Homo sapiens, UniProt P00533, A750P/DEL747-749); assay: biochemical; set-up: KINOMEscan scanMAX competition binding, DNA-tagged kinases, qPCR read-out, percent control at 300 nM
EGFR(L747-E749del, A750P), sequence (P00533 with tags, fused parts or gaps DEL747-749/A750P): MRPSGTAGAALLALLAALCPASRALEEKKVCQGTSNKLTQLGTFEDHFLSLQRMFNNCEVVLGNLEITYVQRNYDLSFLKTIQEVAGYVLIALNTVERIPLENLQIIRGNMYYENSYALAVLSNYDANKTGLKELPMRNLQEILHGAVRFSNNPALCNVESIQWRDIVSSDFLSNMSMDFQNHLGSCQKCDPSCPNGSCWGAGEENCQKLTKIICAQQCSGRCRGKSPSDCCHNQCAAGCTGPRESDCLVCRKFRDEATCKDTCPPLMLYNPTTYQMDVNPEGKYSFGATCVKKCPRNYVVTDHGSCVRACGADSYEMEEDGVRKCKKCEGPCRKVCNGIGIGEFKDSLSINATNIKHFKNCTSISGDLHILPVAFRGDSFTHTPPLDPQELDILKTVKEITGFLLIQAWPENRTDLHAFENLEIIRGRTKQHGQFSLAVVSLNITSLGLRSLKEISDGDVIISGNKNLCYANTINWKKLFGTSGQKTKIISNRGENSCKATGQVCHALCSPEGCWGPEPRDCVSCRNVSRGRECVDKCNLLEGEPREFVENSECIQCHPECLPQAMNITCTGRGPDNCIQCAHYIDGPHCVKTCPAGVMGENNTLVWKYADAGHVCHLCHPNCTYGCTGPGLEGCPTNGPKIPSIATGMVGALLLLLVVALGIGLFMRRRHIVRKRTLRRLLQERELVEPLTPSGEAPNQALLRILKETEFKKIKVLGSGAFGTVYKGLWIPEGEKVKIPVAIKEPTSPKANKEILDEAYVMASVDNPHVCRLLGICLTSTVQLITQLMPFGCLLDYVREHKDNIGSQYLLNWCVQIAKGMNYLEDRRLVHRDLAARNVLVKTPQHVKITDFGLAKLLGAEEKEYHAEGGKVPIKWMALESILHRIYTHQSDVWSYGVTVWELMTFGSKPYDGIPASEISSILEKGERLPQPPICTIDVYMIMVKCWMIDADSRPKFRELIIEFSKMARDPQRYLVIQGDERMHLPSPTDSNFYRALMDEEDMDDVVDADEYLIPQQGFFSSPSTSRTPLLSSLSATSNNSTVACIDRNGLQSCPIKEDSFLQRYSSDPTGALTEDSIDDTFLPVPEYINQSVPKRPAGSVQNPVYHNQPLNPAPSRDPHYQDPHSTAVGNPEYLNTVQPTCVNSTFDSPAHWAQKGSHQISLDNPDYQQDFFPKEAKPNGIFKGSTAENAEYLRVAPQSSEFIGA

KIT(D816V) = KIT(D816V) (Homo sapiens, UniProt P10721, D816V); assay: biochemical; set-up: KINOMEscan scanMAX competition binding, DNA-tagged kinases, qPCR read-out, percent control at 300 nM
KIT(D816V), sequence (P10721 whole entry D816V): as the sequence (P10721 whole entry V559D/T670I) above, with D559V, I670T, D816V counted along it

FGR = FGR (Homo sapiens, UniProt P09769); assay: biochemical; set-up: KINOMEscan scanMAX competition binding, DNA-tagged kinases, qPCR read-out, percent control at 300 nM
PAK6 = PAK6 (Homo sapiens, UniProt Q9NQU5); assay: biochemical; set-up: KINOMEscan scanMAX competition binding, DNA-tagged kinases, qPCR read-out, percent control at 300 nM
PAK6, sequence (Q9NQU5 whole entry): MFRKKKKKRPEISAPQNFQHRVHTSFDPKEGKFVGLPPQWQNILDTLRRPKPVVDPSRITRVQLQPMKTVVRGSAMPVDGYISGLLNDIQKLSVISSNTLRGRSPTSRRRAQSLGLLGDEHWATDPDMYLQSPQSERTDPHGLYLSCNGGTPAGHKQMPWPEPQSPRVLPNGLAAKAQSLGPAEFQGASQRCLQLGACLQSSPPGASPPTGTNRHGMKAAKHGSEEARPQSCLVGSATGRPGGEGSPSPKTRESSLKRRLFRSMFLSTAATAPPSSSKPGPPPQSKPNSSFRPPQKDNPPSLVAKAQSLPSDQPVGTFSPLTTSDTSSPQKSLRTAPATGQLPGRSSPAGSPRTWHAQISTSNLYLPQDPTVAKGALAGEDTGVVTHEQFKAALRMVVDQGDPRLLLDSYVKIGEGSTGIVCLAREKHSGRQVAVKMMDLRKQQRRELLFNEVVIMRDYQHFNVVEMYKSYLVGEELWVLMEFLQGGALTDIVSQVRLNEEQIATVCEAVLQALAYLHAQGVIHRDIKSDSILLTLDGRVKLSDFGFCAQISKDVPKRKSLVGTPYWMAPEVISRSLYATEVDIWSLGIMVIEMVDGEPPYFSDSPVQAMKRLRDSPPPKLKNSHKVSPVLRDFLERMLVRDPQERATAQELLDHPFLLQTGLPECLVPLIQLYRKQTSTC

FYN = FYN (Homo sapiens, UniProt P06241); assay: mobility shift assay (MSA)
CSK = CSK (Homo sapiens, UniProt P41240); assay: mobility shift assay (MSA)
LYNa = LYNa (Homo sapiens, UniProt P07948); assay: mobility shift assay (MSA)
DAPK2 = DAPK2 (Homo sapiens, UniProt Q9UIK4); assay: biochemical; set-up: KINOMEscan scanMAX competition binding, DNA-tagged kinases, qPCR read-out, percent control at 300 nM
TNK2 = TNK2 (Homo sapiens, UniProt Q07912); assay: biochemical; set-up: KINOMEscan scanMAX competition binding, DNA-tagged kinases, qPCR read-out, percent control at 300 nM
TNK2, sequence (Q07912 whole entry): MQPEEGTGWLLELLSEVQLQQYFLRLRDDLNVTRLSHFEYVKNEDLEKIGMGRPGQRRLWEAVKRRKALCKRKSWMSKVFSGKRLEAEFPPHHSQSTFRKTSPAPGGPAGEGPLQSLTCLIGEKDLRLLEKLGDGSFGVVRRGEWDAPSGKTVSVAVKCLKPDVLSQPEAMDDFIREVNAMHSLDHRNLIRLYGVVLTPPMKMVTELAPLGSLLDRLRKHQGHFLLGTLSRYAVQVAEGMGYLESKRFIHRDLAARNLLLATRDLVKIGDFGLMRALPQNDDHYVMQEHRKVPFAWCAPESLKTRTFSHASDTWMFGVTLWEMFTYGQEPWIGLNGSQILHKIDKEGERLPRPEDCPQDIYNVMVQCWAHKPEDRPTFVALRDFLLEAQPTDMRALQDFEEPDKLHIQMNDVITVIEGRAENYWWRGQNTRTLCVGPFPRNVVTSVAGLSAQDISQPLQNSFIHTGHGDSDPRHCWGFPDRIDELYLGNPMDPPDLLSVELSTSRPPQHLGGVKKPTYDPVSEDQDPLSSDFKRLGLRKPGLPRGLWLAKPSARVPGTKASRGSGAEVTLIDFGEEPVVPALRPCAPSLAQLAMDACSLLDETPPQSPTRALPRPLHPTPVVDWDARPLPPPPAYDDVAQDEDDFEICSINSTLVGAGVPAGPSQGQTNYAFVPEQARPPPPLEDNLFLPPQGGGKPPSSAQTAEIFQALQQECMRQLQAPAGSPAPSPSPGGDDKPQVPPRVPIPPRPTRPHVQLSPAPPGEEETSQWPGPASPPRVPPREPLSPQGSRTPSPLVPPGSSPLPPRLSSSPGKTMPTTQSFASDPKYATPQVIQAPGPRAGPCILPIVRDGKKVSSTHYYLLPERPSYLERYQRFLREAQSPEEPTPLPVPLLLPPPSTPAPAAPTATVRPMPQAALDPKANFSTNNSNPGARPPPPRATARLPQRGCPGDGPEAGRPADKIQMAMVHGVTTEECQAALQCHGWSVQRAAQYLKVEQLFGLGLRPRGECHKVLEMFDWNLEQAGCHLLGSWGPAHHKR

[3] = read-out: Percent control / Acalabrutinib
[4] = read-out: Percent control / Ibrutinib
[5] = read-out: Percent control / Tirabrutinib
[6] = read-out: Percent control / Zanubrutinib

Structure (SMILES): CC#CC(=O)N1CCC[C@H]1c1nc(-c2ccc(C(=O)Nc3ccccn3)cc2)c2c(N)nccn12 [Acalabrutinib]
- IC50 (BLK): 2270 nM
- remaining binding at 0.3 µM (PIK4CB; [3]): 72%
- remaining binding at 0.3 µM (KIT(V559D,T670I); [3]): 78%
- remaining binding at 0.3 µM (ERN1; [3]): 96%
- remaining binding at 0.3 µM (MEK5; [3]): 71%
- remaining binding at 0.3 µM [1, 3]: 85%
- remaining binding at 0.3 µM (FGFR2; [3]): 88%
- remaining binding at 0.3 µM [2, 3]: 91%
- remaining binding at 0.3 µM (KIT(D816V); [3]): 92%
- remaining binding at 0.3 µM (FGR; [3]): 94%
- remaining binding at 0.3 µM (PAK6; [3]): 88%
- IC50 (FYN): > 10000 nM
- IC50 (CSK): 6650 nM
- IC50 (LYNa): > 10000 nM

Structure (SMILES): C=CC(=O)N1CCC[C@@H](n2nc(-c3ccc(Oc4ccccc4)cc3)c3c(N)ncnc32)C1 [Ibrutinib]
- remaining binding at 0.3 µM (DAPK2; [4]): 79%
- remaining binding at 0.3 µM (ERN1; [4]): 89%
- remaining binding at 0.3 µM (MEK5; [4]): 0.6%
- remaining binding at 0.3 µM (TNK2; [4]): 48%
- remaining binding at 0.3 µM (FGFR2; [4]): 65%
- remaining binding at 0.3 µM [2, 4]: 10%
- remaining binding at 0.3 µM (FGR; [4]): 8.6%

Structure (SMILES): CC#CC(=O)N1CC[C@@H](n2c(=O)n(-c3ccc(Oc4ccccc4)cc3)c3c(N)ncnc32)C1 [Tirabrutinib]
- IC50 (BLK): 1280 nM
- remaining binding at 0.3 µM (PIK4CB; [5]): 79%
- remaining binding at 0.3 µM (DAPK2; [5]): 88%
- remaining binding at 0.3 µM (KIT(V559D,T670I); [5]): 98%
- remaining binding at 0.3 µM (ERN1; [5]): 87%
- remaining binding at 0.3 µM (MEK5; [5]): 41%
- remaining binding at 0.3 µM (TNK2; [5]): 93%
- remaining binding at 0.3 µM [1, 5]: 77%
- remaining binding at 0.3 µM [2, 5]: 69%
- remaining binding at 0.3 µM (KIT(D816V); [5]): 93%
- remaining binding at 0.3 µM (PAK6; [5]): 98%
- IC50 (FYN): 2220 nM
- IC50 (CSK): 449 nM
- IC50 (LYNa): 3490 nM

Structure (SMILES): C=CC(=O)N1CCC([C@@H]2CCNc3c(C(N)=O)c(-c4ccc(Oc5ccccc5)cc4)nn32)CC1 [Zanubrutinib]
- remaining binding at 0.3 µM (PIK4CB; [6]): 94%
- remaining binding at 0.3 µM (DAPK2; [6]): 91%
- remaining binding at 0.3 µM (KIT(V559D,T670I); [6]): 62%
- remaining binding at 0.3 µM (ERN1; [6]): 100%
- remaining binding at 0.3 µM (TNK2; [6]): 90%
- remaining binding at 0.3 µM [1, 6]: 96%
- remaining binding at 0.3 µM (FGFR2; [6]): 93%
- remaining binding at 0.3 µM (KIT(D816V); [6]): 98%
- remaining binding at 0.3 µM (FGR; [6]): 66%
- remaining binding at 0.3 µM (PAK6; [6]): 91%
